Assay: refractive index (other wavelength) (dimensionless); xn = mol fraction of the nth substance listed
Conditions: 303.15 K, 95.99 kPa, Liquid, Standard Abbe refractometry

OCCOCCOCCO [triethylene glycol] + O
refractive index
Conditions	Wavelength=587.6 nm	Wavelength=589.3 nm	Wavelength=632.8 nm	Wavelength=644 nm
x2 = 0	–	1.45267	1.4511	1.45075
x2 = 0.1056	–	1.45131	1.44977	1.44941
x2 = 0.2069	–	1.44969	1.44815	1.4478
x2 = 0.3104	–	1.44605	1.44452	1.44417
x2 = 0.4844	–	1.44261	1.44109	1.44075
x2 = 0.5016	–	1.44163	1.44012	1.43978
x2 = 0.5952	–	1.43507	1.43356	–
x2 = 0.6016	–	1.43519	1.43369	–
x2 = 0.6788	–	1.42871	1.42724	–
x2 = 0.7835	–	1.41945	1.41799	–
x2 = 0.8184	–	1.41428	1.41284	–
x2 = 0.8473	1.40803	1.40797	1.40655	–
x2 = 0.8719	1.40124	1.40118	1.39977	–
x2 = 0.8926	1.39369	1.39363	1.39224	–
x2 = 0.9106	1.38817	1.38811	1.38673	–
x2 = 0.9254	1.37798	1.37792	1.37655	–
x2 = 0.9303	1.37934	1.37928	1.37792	–
x2 = 0.9391	1.37533	1.37531	1.37393	–
x2 = 0.951	1.36879	1.36873	1.36739	–
x2 = 0.9599	1.36294	1.36288	1.36155	–
x2 = 0.9708	1.35503	1.35497	1.35367	–
x2 = 0.979	1.35005	1.34999	1.34869	–
x2 = 0.9867	1.34407	1.34402	1.34275	–
x2 = 0.9936	1.33792	1.33786	1.3366	–

Source: the NIST ThermoML archive (doi:10.1016/j.fluid.2015.07.030)
